Test results as given in ChEMBL document CHEMBL6127107, “Oleanolic acid derivatives against drug-resistant bacteria and fungi by multi-targets to avoid drug resistance” (Eur J Med Chem, 2024).
Converted amounts (≈) assume the structure as drawn.

Columns and labels:
[1] = tested on: Staphylococcus aureus; assay: Antimicrobial activity against methicillin-resistant Staphylococcus aureus 003; format: functional
[2] = tested on: Enterococcus faecalis; assay: Antimicrobial activity against vancomycin resistant Enterococcus faecalis ATCC 51299; format: functional
[3] = tested on: Staphylococcus aureus; assay: Antimicrobial activity against methicillin-resistant Staphylococcus aureus 011; format: functional
[4] = tested on: Staphylococcus aureus; assay: Antimicrobial activity against Staphylococcus aureus 29; format: functional
[5] = tested on: Staphylococcus aureus; assay: Antimicrobial activity against Staphylococcus aureus 31; format: functional
[6] = tested on: Staphylococcus aureus; assay: Antimicrobial activity against Staphylococcus aureus 10; format: functional
[7] = tested on: Candida albicans; assay: Antimicrobial activity against fluconazole-resistant Candida albicans; format: functional
[8] = Hemolytic activity against Mianyang red blood cells (unknown origin); format: toxicity, cell-based, RBC
[9] = Selectivity index, ratio of HC50 for hemolytic activity against Mianyang red blood cells (unknown origin) to MIC for antimicrobial activity against methicillin resistant Staphylococcus aureus 003; format: toxicity, cell-based, RBC; details: read-out: Selectivity Index
[10] = tested on: Pseudomonas aeruginosa; assay: Antimicrobial activity against Pseudomonas aeruginosa; format: functional
[11] = tested on: Escherichia coli; assay: Antimicrobial activity against Escherichia coli; format: functional

Structure (SMILES)	MIC [1]	MIC [2]	MIC [3]	MIC [4]	MIC [5]	MIC [6]	MIC [7]	HC50 [8]	selectivity ratio [9]	MIC [10]	MIC [11]
CC1(C)CC[C@]2(C(=O)O)CC[C@]3(C)C(=CC[C@@H]4[C@@]5(C)CC[C@H](OCC(O)CCCN)C(C)(C)[C@@H]5CC[C@]43C)[C@@H]2C1 (stereo partly specified)	4 µg/mL (≈ 7.17 µM)	8 µg/mL (≈ 14.3 µM)	2 µg/mL (≈ 3.59 µM)	2 µg/mL (≈ 3.59 µM)	8 µg/mL (≈ 14.3 µM)	4 µg/mL (≈ 7.17 µM)	4 µg/mL (≈ 7.17 µM)	32 µg/mL	8.01	> 64 µg/mL	> 64 µg/mL
CC1(C)S[C@@H]2[C@H](NC(=O)[C@H](N)c3ccccc3)C(=O)N2[C@H]1C(=O)O [AMPICILLIN]	> 128 µg/mL	2 µg/mL (≈ 5.72 µM)	> 128 µg/mL	2 µg/mL (≈ 5.72 µM)	2 µg/mL (≈ 5.72 µM)	2 µg/mL (≈ 5.72 µM)		> 256 µg/mL			
CC(=O)O[C@H]1CC[C@]2(C)[C@H]3CC=C4[C@@H]5CC(C)(C)CC[C@]5(C(=O)NCCCCCCCCN)CC[C@@]4(C)[C@]3(C)CC[C@H]2C1(C)C	8 µg/mL (≈ 12.8 µM)	16 µg/mL (≈ 25.6 µM)	4 µg/mL (≈ 6.4 µM)	8 µg/mL (≈ 12.8 µM)	32 µg/mL (≈ 51.2 µM)	8 µg/mL (≈ 12.8 µM)	64 µg/mL (≈ 102 µM)	40.2 µg/mL	7.53	> 64 µg/mL	> 64 µg/mL
CCCCCCCCCOC(=O)[C@]12CCC(C)(C)C[C@H]1C1=CC[C@@H]3[C@@]4(C)CC[C@H](O)C(C)(C)[C@@H]4CC[C@@]3(C)[C@]1(C)CC2	> 64 µg/mL	> 64 µg/mL	> 64 µg/mL	> 64 µg/mL	> 64 µg/mL	> 64 µg/mL	> 64 µg/mL			> 64 µg/mL	> 64 µg/mL
CC(=O)O[C@H]1CC[C@]2(C)[C@H]3CC=C4[C@@H]5CC(C)(C)CC[C@]5(C(=O)NCc5ccc(F)cc5)CC[C@@]4(C)[C@]3(C)CC[C@H]2C1(C)C	> 64 µg/mL	> 64 µg/mL	> 64 µg/mL	> 64 µg/mL	> 64 µg/mL	> 64 µg/mL	> 64 µg/mL			> 64 µg/mL	> 64 µg/mL
CCCCCOC(=O)[C@]12CCC(C)(C)C[C@H]1C1=CC[C@@H]3[C@@]4(C)CC[C@H](O)C(C)(C)[C@@H]4CC[C@@]3(C)[C@]1(C)CC2	> 64 µg/mL	> 64 µg/mL	> 64 µg/mL	> 64 µg/mL	> 64 µg/mL	> 64 µg/mL	> 64 µg/mL			> 64 µg/mL	> 64 µg/mL
CCCOC(=O)[C@]12CCC(C)(C)C[C@H]1C1=CC[C@@H]3[C@@]4(C)CC[C@H](O)C(C)(C)[C@@H]4CC[C@@]3(C)[C@]1(C)CC2	> 64 µg/mL	> 64 µg/mL	> 64 µg/mL	> 64 µg/mL	> 64 µg/mL	> 64 µg/mL	> 64 µg/mL			> 64 µg/mL	> 64 µg/mL
CN(C)CC(O)CO[C@H]1CC[C@]2(C)[C@H]3CC=C4[C@@H]5CC(C)(C)CC[C@]5(C(=O)O)CC[C@@]4(C)[C@]3(C)CC[C@H]2C1(C)C (stereo partly specified)	> 64 µg/mL	> 64 µg/mL	> 64 µg/mL	> 64 µg/mL	> 64 µg/mL	> 64 µg/mL	> 64 µg/mL			> 64 µg/mL	> 64 µg/mL
C[C@@H]1[C@H](O)[C@@H](C)/C=C/C=C/C=C/C=C/C=C/C=C/C=C/[C@H](O[C@@H]2O[C@H](C)[C@@H](O)[C@H](N)[C@@H]2O)C[C@@H]2O[C@](O)(C[C@@H](O)C[C@@H](O)[C@H](O)CC[C@@H](O)C[C@@H](O)CC(=O)O[C@H]1C)C[C@H](O)[C@H]2C(=O)O [AMPHOTERICIN B]							1 µg/mL (≈ 1.08 µM)	29.2 µg/mL	29.2		
CC1(C)CC[C@]2(C(=O)O)CC[C@]3(C)C(=CC[C@@H]4[C@@]5(C)CC[C@H](O)C(C)(C)[C@@H]5CC[C@]43C)[C@@H]2C1 [OLEANOLIC_ACID]	64 µg/mL (≈ 140 µM)	64 µg/mL (≈ 140 µM)	> 64 µg/mL	64 µg/mL (≈ 140 µM)	32 µg/mL (≈ 70.1 µM)	64 µg/mL (≈ 140 µM)	> 64 µg/mL	> 1020 µg/mL	> 16		
CCCCCCCCCCCCC(=O)O[C@H]1CC[C@]2(C)[C@H]3CC=C4[C@@H]5CC(C)(C)CC[C@]5(C(=O)O)CC[C@@]4(C)[C@]3(C)CC[C@H]2C1(C)C	> 64 µg/mL	> 64 µg/mL	> 64 µg/mL	> 64 µg/mL	> 64 µg/mL	> 64 µg/mL	> 64 µg/mL			> 64 µg/mL	> 64 µg/mL
OC(Cn1cncn1)(Cn1cncn1)c1ccc(F)cc1F [FLUCONAZOLE]							> 128 µg/mL	> 256 µg/mL			
CCNC(=O)[C@]12CCC(C)(C)C[C@H]1C1=CC[C@@H]3[C@@]4(C)CC[C@H](OC(C)=O)C(C)(C)[C@@H]4CC[C@@]3(C)[C@]1(C)CC2	> 64 µg/mL	> 64 µg/mL	> 64 µg/mL	> 64 µg/mL	> 64 µg/mL	> 64 µg/mL	> 64 µg/mL			> 64 µg/mL	> 64 µg/mL
